From patent US3985779A, “M-phenoxyphenyl propionic acid derivatives and preparation thereof” (Eisai Co., Ltd., priority 1973, dated 1976)
Read-outs that look alike come from different tables or passages of the source.

Key:
stomachs of the rats = format: in vivo; conditions: score 0 (nothing unusual) to 10 (considerable irritability with bleeding)
From the text: Observation of gastric irritability
Gastric irritability due to oral administration of the compounds as edema inhibitory agent was studied by macroscopical observation of the dissected stomachs of the rats which had been employed for determination of the edema inhibitions mentioned in the preceding paragraphs. The degrees of the irritability observed were scored in the 0 to 10 ratings depending upon the extent of errosions and bleedings of the stomachs, wherein the rating of 0(zero) means "nothing unusual", the rating of 10 means a state of considerable gastric irritability with bleeding and the remainders mean the intermediate degree of gastric irritability.

in vivo = conditions: mouse, po
Procedure: Comparison of toxicity of the phenyl propionic acid derivatives of the present invention and that of the other known anti-inflammatory agents was carried out in mice.

yeast-induced pyrexia = experiment: Antipyretic activity to the yeast-treated rats (Experiment I); format: in vivo, rats (Wistar strain male)
Procedure: To Wistar strain male rats having about 300 - 350 grs. body weight, an aqueous suspension of yeast was subcutaneously injected to induce pyrexia.
At the lapse of 4 hours since the dose of the yeast suspension, the compounds under test given in hereinaftermentioned Table 10 in a form of suspension in a 5% gum arabic aqueous solution are orally administered. The rectal temperatures of the rats were measured periodically by means of a thermister-type thermometer sold by Japan Koden K.K. As control, said 5% gum arabic aqueous solution alone was administered.

writhing syndrome = experiment: Analgesic activity: antagonism to acetic acid writhing syndrome in mice (Experiment J); format: in vivo, mice (dd strain male)
Procedure: Analgesic activity of the compound of the present invention in comparison with the known compounds.
Analgesic activity of the compound was tested as the measure of antagonism to writhing syndrome appeared when 0.1 ml/10g of 0.7% acetic acid was intraperitoneally injected to the dd strain male mice having 17 - 20 grs. body weight which had been abstinence from food for 18 hours.
The compounds under test were orally administered in a form of suspension in a 5% aqueous solution of gum arabic. After one hour from the administration, the onset times required for the writhing syndrome were scored.
In another Experiment in the combined use of the compounds under test and Codeine phosphate, 10 - 20 mg/kg of Codeine phosphate were orally administered immediatly after the oral administration of the compounds under test.

[1] = tested on: Carrageenin-induced edema; experiment: Inhibitory activity on Carrageenin-induced Edema in rats (Experiment A); format: in vivo, rats (male Wistar); conditions: 3 hours after Carrageenin
Procedure: Inhibitory activity on Carrageenin-induced Edema in rats
Carrageenin was used as the agent for inducing edema and 5 male rats of Wistar strain having body weight of about 150 grs. after fasting for 16-17 hours were used as test animals. The inhibitory activity of the test compounds were determined with the paw edema method in accordance with Winter C. A. et al; Proc. Soc. Exp. Biol. Med. 111, 544 (1962).
The compounds were suspended in an aqueous solution of gum arabic and the same were orally administered to the rats at 1 hour before the injection of Carrageenin.
The observation was effected by measuring, after 3 hours the administration of the Carrageenin, the enlarged volumes of hind paw of the rats.

Kaolin-induced edema = experiment: Inhibitory activity on Kaolin-induced Edema in Rats (Experiment B); format: in vivo
Dextran-induced edema = experiment: Inhibitory activity on dextran-induced edema in rats (Experiment C); format: in vivo
Procedure: Inhibitory activity on dextran-induced edema in rats Experiment was carried out in the manner same as those of the preceding Experiments in which dextran was employed as irritant substance.

ARRS-induced edema = experiment: Inhibitory activity on anti-rat-rabbit serum (ARRS)-induced edema in rats (Experiment D); format: in vivo
Procedure: Inhibitory activity on anti-rat-rabbit serum (ARRS)-induced edema in rats Similar Experiments was carried out by using ARRS as irritant substance.

CC(=O)Oc1ccccc1C(=O)O [Aspirin]
Degree of gastric irritability (stomachs of the rats; 100 mg/kg oral): 10
LD50 (in vivo): 1600 mg/kg
body temperature relative to normal (in words) (yeast-induced pyrexia; 320 mg/kg p.o.): body temperature injuriously depressed below the normal body temperature
Change in rectal temperature, mean ± S.E. (yeast-induced pyrexia; 1 hr, 80 mg/kg p.o.): -0.18 ± 0.10
Change in rectal temperature, mean ± S.E. (yeast-induced pyrexia; 1 hr, 160 mg/kg p.o.): -0.48 ± 0.23
Change in rectal temperature, mean ± S.E. (yeast-induced pyrexia; 1 hr, 320 mg/kg p.o.): -0.75 ± 0.10
Change in rectal temperature, mean ± S.E. (yeast-induced pyrexia; 3 hrs, 80 mg/kg p.o.): -0.25 ± 0.18
Change in rectal temperature, mean ± S.E. (yeast-induced pyrexia; 3 hrs, 160 mg/kg p.o.): -1.05 ± 0.18
Change in rectal temperature, mean ± S.E. (yeast-induced pyrexia; 3 hrs, 320 mg/kg p.o.): -1.68 ± 0.28
Change in rectal temperature, mean ± S.E. (yeast-induced pyrexia; 5 hrs, 80 mg/kg p.o.): -0.20 ± 0.12
Change in rectal temperature, mean ± S.E. (yeast-induced pyrexia; 5 hrs, 160 mg/kg p.o.): -0.95 ± 0.18
Change in rectal temperature, mean ± S.E. (yeast-induced pyrexia; 5 hrs, 320 mg/kg p.o.): -1.30 ± 0.29
Onset time of writhing syndrome, mean ± S.E. (writhing syndrome; 10 mg/kg p.o. combined with Codeine Phosphate 10 mg/kg): 5.4 ± 0.4 min
Onset time of writhing syndrome, mean ± S.E. (writhing syndrome; 10 mg/kg p.o. combined with Codeine Phosphate 20 mg/kg): 9.6 ± 1.8 min
Onset time of writhing syndrome, mean ± S.E. (writhing syndrome; 160 mg/kg p.o. combined with Codeine Phosphate 10 mg/kg): 6.2 ± 0.6 min
Onset time of writhing syndrome, mean ± S.E. (writhing syndrome; 160 mg/kg p.o. combined with Codeine Phosphate 20 mg/kg): 11.1 ± 1.6 min
minimal effective dose (writhing syndrome; Mus musculus, 1 h, single oral administration, read-out: dose with significant antagonism / retardation of writhing syndrome): 160 mg/kg
Onset time of writhing syndrome, mean ± S.E. (writhing syndrome; test compound alone, 10 mg/kg p.o.): 5.2 ± 1.4 min
Onset time of writhing syndrome, mean ± S.E. (writhing syndrome; test compound alone, 160 mg/kg p.o.): 5.9 ± 0.8 min

CC(C(=O)O)c1cccc(Oc2ccccc2)c1 (centres unmarked) [Compound (2), reference compound]
% of Inhibition ([1]; oral 8.0 mg/kg): 31%
Edema density ± S.E. ([1]; oral 8.0 mg/kg): .373 ± .039
% of Inhibition ([1]; oral 10.0 mg/kg, 10 mg/kg): 35%
Edema density ± S.E. ([1]; oral 10.0 mg/kg, 10 mg/kg): .352 ± .063
Edema D. ± S.E. (Kaolin-induced edema; after 3 hrs, oral 8 mg/kg): .418 ± .040
% of Inhibition (Kaolin-induced edema; after 3 hrs, oral 40 mg/kg): 49%
Edema D. ± S.E. (Kaolin-induced edema; after 3 hrs, oral 40 mg/kg): .212 ± .023
% of Inhibition (Kaolin-induced edema; after 5 hrs, oral 8 mg/kg): 11%
Edema D. ± S.E. (Kaolin-induced edema; after 5 hrs, oral 8 mg/kg): .499 ± .048
% of Inhibition (Kaolin-induced edema; after 5 hrs, oral 40 mg/kg): 48%
Edema D. ± S.E. (Kaolin-induced edema; after 5 hrs, oral 40 mg/kg): .292 ± .031
Edema D. ± S.E. (Kaolin-induced edema; after 7 hrs, oral 8 mg/kg): .612 ± .067
% of Inhibition (Kaolin-induced edema; after 7 hrs, oral 40 mg/kg): 33%
Edema D. ± S.E. (Kaolin-induced edema; after 7 hrs, oral 40 mg/kg): .406 ± .057
% of Inhibition (Dextran-induced edema; after 2 hrs, oral 8 mg/kg): 5%
Edema D. ± S.E. (Dextran-induced edema; after 2 hrs, oral 8 mg/kg): .795 ± .031
% of Inhibition (Dextran-induced edema; after 2 hrs, oral 40 mg/kg): 1%
Edema D. ± S.E. (Dextran-induced edema; after 2 hrs, oral 40 mg/kg): .846 ± .013
% of Inhibition (Dextran-induced edema; after 3 hrs, oral 8 mg/kg): 1%
Edema D. ± S.E. (Dextran-induced edema; after 3 hrs, oral 8 mg/kg): .749 ± .026
% of Inhibition (Dextran-induced edema; after 3 hrs, oral 40 mg/kg): -3%
Edema D. ± S.E. (Dextran-induced edema; after 3 hrs, oral 40 mg/kg): .773 ± .027
% of Inhibition (ARRS-induced edema; after 2 hrs, oral 8 mg/kg): 7%
Edema D. ± S.E. (ARRS-induced edema; after 2 hrs, oral 8 mg/kg): .634 ± .048
% of Inhibition (ARRS-induced edema; after 2 hrs, oral 40 mg/kg): 19%
Edema D. ± S.E. (ARRS-induced edema; after 2 hrs, oral 40 mg/kg): .553 ± .038
% of Inhibition (ARRS-induced edema; after 3 hrs, oral 8 mg/kg): 16%
Edema D. ± S.E. (ARRS-induced edema; after 3 hrs, oral 8 mg/kg): .599 ± .040
% of Inhibition (ARRS-induced edema; after 3 hrs, oral 40 mg/kg): 26%
Edema D. ± S.E. (ARRS-induced edema; after 3 hrs, oral 40 mg/kg): .531 ± .026
Degree of gastric irritability (stomachs of the rats; 50 mg/kg oral): 3
